Legend:
[1] = system: IL-6; experiment: Serum IL-6 (ELISA) in TAA-treated Quinster rats given ammonium chloride per os; type: in vivo; conditions: 12 hours post the third TAA injection, mean ± SD
Method: (§1) Thioacetamid (TAA) was given to adult male Quinster rats with a course of 400 mg TAA/kg B.W. every 24 hours and for 3 consecutive days. […] The animals were sacrificed in 6 and 12 hours after the 3rd treatment with TTA. TNF-α and IL-6 levels were measured in serum (ELISA test) after 12 hours post the third TAA injection and the results are reported in the following table.

[2] = system: TNF-α; experiment: Serum TNF-α (ELISA) in TAA-treated Quinster rats given ammonium chloride per os; type: in vivo; conditions: 12 hours post the third TAA injection, mean ± SD
Method: as §1

[3] = system: hyaluronic acid; experiment: Hyaluronic acid levels in treated Quinster rats; type: in vivo
Source text: The levels of hyaluronic acid in patients with high-grade hepatic damage are usually high, but they appeared decreased in the treated Quinster rats. Furthermore, additional biochemical factors appeared improved.

[4] = system: chronic hepatitis B; experiment: Clinical treatment of a patient with chronic hepatitis B, viral charge; type: in vivo, human; conditions: 3 gr/day by the protocol, before treatment 1.65 × 10^6 IU/ml
Method: (§2) The above protocol of administration can be repeated several times until the completion of the treatment as judged by the clinician. For example, 21 cycles of treatment are performed, which complies with the natural time of regeneration of liver after a partial hepatectomy in patients. Therefore, the duration of the treatment can be from 1 to 6 months or from 3 to 4 months for patients with partial necrosis.
(§3) Patients were treated according to the above described protocol, using a dose of 3 gr/day.

[5] = system: hepatitis C; experiment: Clinical treatment of a patient with hepatitis C, viral charge; type: in vivo, human; conditions: Patient B, 3 gr/day by the protocol, before treatment 1.65 × 10^8 IU/ml
Method: as §2, §3

[6] = system: Hepatitis Virus; experiment: Use of NH4Cl in treating hepatitis virus, reduction of viral charge across patients; type: in vivo; conditions: in humans; Patients A and B, 3 months of treatment, 3 gr/day
Method: as §3

For `Cl.N` [NH4Cl, ammonium chloride], the IL-6 ([1]; Group II, at least 8 animals per group, Control 11 ± 5, Group I 58 ± 9) was 69 ± 12 pg/dL, the IL-6 ([1]; Group III) was 92 ± 8 pg/dL and the IL-6 ([1]; Group IV) was 73 ± 12 pg/dL. The TNF-α ([2]; Group II, Control 21 ± 4, Group I 65 ± 15) was 52 ± 17 pg/dL, the TNF-α ([2]; Group III) was 32 ± 6 pg/dL and the TNF-α ([2]; Group IV) was 45 ± 9 pg/dL. The “levels of hyaluronic acid” value [3] was “decreased”, the “Viral charge after 3 months of treatment” value [4] was 1.65 × 10^3 IU/ml and the “Viral charge after 3 months of treatment” value [5] was 1.65 × 10^6 IU/ml. For the same compound, the “factor of reduction of the viral charge” value [6] was “at least 10^2”.
